Measured values reported in US7691874B2, “Neuroprotective properties of dextrorotatory morphinans” (priority 2004, dated 2010).

What was measured:
C57 BL/6 mice [1] = assay: Locomotor activity and locomotor pattern following repeated administration of morphinans or PCP; format: in vivo
C57 BL/6 mice [2] = assay: Conditioned place preference (psychological dependence) following repeated administration of morphinans or PCP; format: in vivo; conditions: 20 or 40 mg/kg i.p. (PCP 2.5 or 5 mg/kg); vs saline
Experimental: On day 14, the guillotine doors were raised. […] Data were analyzed between 0900 and 1700 hr.

MA-treated mice [3] = assay: Hypokinesia induced by MA; format: in vivo; conditions: 12 and 24 mg/kg; 3 days after final MA
CB1 receptor = CB1 receptor (Rattus norvegicus, UniProt P20272); format: biochemical
MPTP-treated mice [4] = assay: MPTP-induced loss of nigral TH-IR with CB1 agonist/antagonist and HM; format: in vivo; conditions: given alone: AM-251 0.3, ACEA 2, HM 20 mg/kg i.p.; MPTP 20 mg/kg i.p./day x 7
Experimental: CB1 agonist or antagonist was administered 45 min before every MPTP, while HM was injected 30 min before every MPTP (20 mg/kg, i.p./day×7). Compounds were administered for 7 days post-final MPTP.

LPS-treated mice [5] = assay: LPS-induced loss of nigral TH-IR with CB1 agonist/antagonist and HM; format: in vivo; conditions: given alone
Experimental: Mortality was observed by 2 weeks after bilateral LPS intrastriatal injection (one side: 2 μg×2).

MPTP-treated mice [6] = assay: MPTP model, HM versus L-dopa/carbidopa: locomotor activity; format: in vivo; conditions: HM 24 mg/kg i.p., L-dopa 200 mg/kg p.o., carbidopa 20 mg/kg p.o., 2 weeks before MPTP
Experimental: FIGS. 20A-20B show effects of carbidopa, L-dopa, carbidopa+L-dopa and HM on the changes in locomotor activity (A) and locomotor pattern (B) induced by MPTP in mice.
A prescription drug for treating Parkinsonian patients is L-dopa or carbidopa plus L-dopa. Thus, the neuroprotective effects of HM was compared with L-dopa, carbidopa, or carbidopa plus L-dopa. […] Locomotor activity was examined for 60 min after final treatment of MPTP. Mice were sacrificed at 24 h after final MPTP administration. HM (24 mg/kg, i.p.), L-dopa (200 mg/kg, p.o.) with or without carbidopa (20 mg/kg, p.o.) was administered for 2 weeks before first MPTP challenge.

LPS-treated mice [7] = assay: LPS model, HM versus L-dopa/carbidopa: nigral TH-IR; conditions: mouse, in vivo
Description: FIG. 27 show effects of carbidopa, L-dopa, carbidopa+L-dopa and HM on the nigral tyrosine hydroxylase-like immunoreactivity (TH-IR) of the mice treated with LPS.

LPS-treated mice [8] = assay: LPS model, HM versus L-dopa/carbidopa: microglia F4/80-like immunoreactivity; format: in vivo; conditions: substantia nigra
MA-treated mice [9] = assay: MA model, HM versus L-dopa/carbidopa: locomotor activity; format: in vivo; conditions: 3 days after MA
cocaine-treated mice [10] = assay: Cocaine-induced hyperlocomotion; format: in vivo
Method in brief: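 Morphinans (15 and 30 mg/kg, i.p.) or dimemorfan (20 mg/kg, i.p.) given 30 minutes before cocaine (5 and 20 mg/kg, i.p.); treatments continued for 7 days. Locomotion scored as central activity (non-specific movement in box center) and marginal activity (circling).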

cocaine-treated mice [11] = assay: Cocaine-induced behavioural sensitization with CB1 modulation
MA-treated mice [12] = assay: MA-induced behavioural sensitization
Experimental: Morphinans (20 mg/kg, i.p.) were administered last 3 days of wash-out period.

MA-treated mice [13] = assay: MA-induced conditioned place preference with CB1 modulation
Experimental: The control mice received an i.p. injection of saline just before entering the white or black compartment. Cocaine or MA dissolved in saline was administered immediately before the mice were placed in the white compartment. To test the effect of cocaine alone or MA alone or in combination with exemplified morphinans (DM, HM, AM, CM or DF), each morphinan was administered 2 hr before cocaine or saline injection.
On day 1, the mice were pre-exposed to the test apparatus for 5 min. The guillotine doors were raised and the mice were allowed to move freely between the two compartments. On day 2, the time each mouse spent in each compartment was recorded for 15 min. On days 3, 5, 7, 9, 11, and 13, the mice were injected with cocaine before being confined to the white compartment, the non-preferred side, for 20 min. On days 4, 6, 8, 10, and 12, the mice were injected with saline before being confined to the black compartment, the preferred side, for 20 min. On day 14, the guillotine doors were raised. The mice were initially placed in the tunnel and the time spent by the mice in the two compartments was recorded for 15 min. The scores were calculated from the differences in the time spent in the white compartment in the testing and pre-testing phases.

σ1 receptors = σ1 receptors (Homo sapiens, UniProt Q99720); conditions: cited from earlier work
[14] = tested on: kainate or maximal electric shock; conditions: kainate (24) or maximal electric shock (27); cited from earlier work
MA-treated mice [15] = assay: Nigral TH-IR in MA-treated mice; conditions: 24 mg/kg i.p.
MPTP-treated mice [16] = assay: Nigral tyrosine hydroxylase-like immunoreactivity in MPTP-treated mice; conditions: 24 mg/kg i.p.
Experimental: Each morphinan was administered 30 min prior to every injection of MPTP for last three days (from day 4th to day 7th). Animals were sacrificed 24 h after the last MPTP treatment.

cocaine-treated mice [17] = assay: Cocaine-induced Fos-related antigen-immunoreactivity (FRA-IR) in the striatum; conditions: cocaine 5 mg/kg; morphinan 20 mg/kg i.p.
cannabinoid CB1 site = cannabinoid CB1 site (Rattus norvegicus, UniProt P20272)
cannabinoid CB1 site, sequence (P20272 whole entry): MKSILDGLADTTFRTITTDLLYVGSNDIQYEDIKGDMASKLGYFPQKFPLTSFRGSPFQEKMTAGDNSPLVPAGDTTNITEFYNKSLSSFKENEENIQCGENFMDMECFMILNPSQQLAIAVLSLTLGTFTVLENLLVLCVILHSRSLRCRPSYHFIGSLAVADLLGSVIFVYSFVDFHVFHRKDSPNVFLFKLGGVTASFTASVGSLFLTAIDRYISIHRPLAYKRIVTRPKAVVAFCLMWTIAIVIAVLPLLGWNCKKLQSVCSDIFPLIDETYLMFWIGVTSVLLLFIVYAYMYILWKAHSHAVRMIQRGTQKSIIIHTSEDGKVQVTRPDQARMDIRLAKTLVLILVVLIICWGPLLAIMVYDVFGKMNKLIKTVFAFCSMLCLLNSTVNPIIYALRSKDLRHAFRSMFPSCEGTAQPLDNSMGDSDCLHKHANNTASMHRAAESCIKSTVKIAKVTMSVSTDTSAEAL

CB1 receptor, sequence (P20272 whole entry): as above
σ1 receptors, sequence (Q99720 whole entry): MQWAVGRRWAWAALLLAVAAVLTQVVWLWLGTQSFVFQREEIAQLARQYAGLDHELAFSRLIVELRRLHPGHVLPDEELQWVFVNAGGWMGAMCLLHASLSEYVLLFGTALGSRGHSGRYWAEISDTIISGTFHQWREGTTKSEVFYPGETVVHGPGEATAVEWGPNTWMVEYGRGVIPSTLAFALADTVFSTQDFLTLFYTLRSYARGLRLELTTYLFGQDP

In the case of `Oc1ccc2c(c1)[C@@]13CCCC[C@H]1[C@@H](C2)NCC3` [HM, 3-hydroxymorphinan], the “locomotor pattern (tracings)” value (C57 BL/6 mice [1]; 40 mg/kg i.p. (PCP 5 mg/kg), FIG. 3) is reported as “did not produce significant marginal activity”, the “marginal activity (circling behaviour; absolute turn angular)” value (C57 BL/6 mice [1]; 20 or 40 mg/kg i.p./day x 7 (PCP 2.5 or 5 mg/kg), 3-min period, vs saline) is reported as “did not significantly affect marginal activity” and the “locomotor activity (total distance moved)” value (C57 BL/6 mice [1]; 20 or 40 mg/kg i.p./day x 7 days, 30 min after final treatment, vs saline) is reported as “comparable to that with saline”. The “conditioned place preference (CPP)” value (C57 BL/6 mice [2]) was “almost no CPP effects”, the “effect on MA-induced reduction in locomotor activity” value (MA-treated mice [3]) was “appeared to be the most effective in preventing reduction in motor activity” and the “effect on CP 55940-induced stimulation in GTP γS binding” value (CB1 receptor) was “decreased”. For the same molecule, the “functional property at CB1 receptor” value (CB1 receptor) was “partial agonist of CB1 receptor, as well as a CB1 antagonist”, the “inhibition of GTP γS binding” value (CB1 receptor; 100 nM) was “about 60%” and the “effect on MPTP-induced reduction of nigral TH-IR” value (MPTP-treated mice [4]) was “Attenuates MPTP-induced Reduced Tyrosine Hydroxylase-like Immunoreactivity”. The “effect on LPS-induced reduction in nigral TH-IR” value (LPS-treated mice [5]) was “Attenuates LPS-Induced Reduced Tyrosine Hydroxylase-like Immunoreactivity”, the “effect on MPTP-induced decrease in locomotor activity” value (MPTP-treated mice [6]) was “significantly increased” and the “effect on LPS-induced loss in nigral TH-IR” value (LPS-treated mice [7]) was “most effective in attenuating LPS-induced reduction in TH-IR”. For the same molecule, the “effect on LPS-induced increase in F4/80-like immunoreactivity (microglia)” value (LPS-treated mice [8]) was “most effective in attenuating LPS-induced increase in F4/80-like immunoreactivity”, the “effect on MA-induced reduction in locomotor activity” value (MA-treated mice [9]) was “more efficacious than that of L-dopa or carbidopa+L-dopa” and the “effect on locomotor activity induced by low dose of cocaine” value (cocaine-treated mice [10]; cocaine 5 mg/kg i.p. x 7 days, morphinan 15 or 30 mg/kg (DF 20 mg/kg) i.p.) was “consistently attenuated locomotor activity induced by a low dose of cocaine”. For the same molecule, the “effect on hyperactivity induced by high dose of cocaine” value (cocaine-treated mice [10]; cocaine 20 mg/kg i.p. x 7 days, morphinan 15 or 30 mg/kg i.p. 30 min before) was “not uniform”, the “behavioural effects of the compound itself” value (cocaine-treated mice [11]; AM 251 0.3, ACEA 2, HM 20 mg/kg, no cocaine) was “Neither saline-, AM 251 (0.3 mg/kg)-, ACEA (2 mg/kg)-treated nor HM (20 mg/kg)-treated animals showed any specific behavioural effects” and the “effect on cocaine-induced behavioural sensitization” value (cocaine-treated mice [11]; cocaine 10 mg/kg/day i.p. x 7, challenge one month later) was “significantly reduced”. The “behavioural effects of the compound itself” value (MA-treated mice [12]; AM 251 0.3, ACEA 2, HM 20 mg/kg, no MA (Ex. 3.14)) was “Neither saline-, AM 251 (0.3 mg/kg)-, ACEA (2 mg/kg)-treated nor HM (20 mg/kg)-treated animals showed any behavioural effects”, the “effect on MA-induced behavioural sensitization (CB1 modulation study)” value (MA-treated mice [12]; MA 1 mg/kg i.p./day x 7, challenge one week later (Ex. 3.14)) was “significantly reduced” and the “CPP response of the compound itself” value (MA-treated mice [13]; AM 251 0.3, HM 20, ACEA 2 mg/kg i.p., no MA) was “Neither saline-, AM 251 (0.3 mg/kg, i.p.)-treated nor HM (20 mg/kg)-treated animals showed any CPP responses”. For the same molecule, the “effect on MA-induced CPP” value (MA-treated mice [13]; mouse, in vivo) was “significantly reduced the CPP produced by MA”, the “affinity for σ1 receptors” value (σ1 receptors) was “high affinity ligands” and the anticonvulsant effect [14] was “did not show any anticonvulsant effect”. For the same molecule, the “effect on MA-induced decrease in nigral TH-positive cells” value (MA-treated mice [15]) was “significantly attenuated the decrease in TH-positive cells”, the “effect on MPTP-induced decrease in nigral TH-positive cells” value (MPTP-treated mice [16]) was “significantly attenuated the decrease in TH-positive cells” and the “effect on cocaine-induced FRA-IR in the striatum” value (cocaine-treated mice [17]) was “apparently attenuated”. For the same molecule, the Ki (cannabinoid CB1 site) was 11.5 nM.
